Test results as given in US20070099958A1, “Protease inhibitors” (ProZymex A/S, priority 2003, published 2007).

Tests used:
[1] = target: T1, CYP2D6 (Homo sapiens, UniProt P10635); assay: CYP2D6 assay (Vivid CYP2D6 Cyan Screening Kit); assay type: in vitro ADME; conditions: read-out: Metabolism: CYP enzymes (20 μM cutoff or IC50) CYP2D6
T1 construct: purchased PanVera
Experimental: (§1) Following the procedure for CYP1A2, using the appropriate kits below, the effect of a compound of the invention on the other CYP enzymes was determined:
Vivid® CYP2D6 Cyan Screening Kit from PanVera.

[2] = target: T2, CYP3A4 (Homo sapiens, UniProt P08684); assay: CYP3A4 assay (Vivid CYP3A4 Red Screening Kit); assay type: in vitro ADME; conditions: read-out: Metabolism: CYP enzymes (20 μM cutoff or IC50) CYP3A4
T2 construct: purchased PanVera
Experimental: as §1
Vivid® CYP3A4 Red Screening Kit from PanVera.

[3] = target: T3, Human DPP-I (Homo sapiens, UniProt P53634); assay: Human dipeptidyl peptidase I (DPP-I) assay; assay type: biochemical; conditions: Gly-Phe-AFC substrate, pH 6.0, 37° C.; read-out: Primary enzymatic screening (IC50) DPP-I
T3 construct: purchased UniZyme A/S
Experimental: Human dipeptidyl Peptidase I (DPP-I) Assay
Using this assay, the IC50 value of a compound of the invention as a DPP-I inhibitor was determined using an AFC substrate.
100 mM sodium phosphate (8.9 g Na2HPO4; M=177.99), 150 mM KCl (5.6 g KCl; M=74.6) and 1.5 mM EDTA (279 mg EDTA; M=372.2) was dissolved in 500 mL H2O, and pH was adjusted to 6.0. Cysteine*HCl (Sigma C-1276; M=157.6), 1 mg/mL assay buffer, corresponding to 6 mM, was added to the solution for activation of the DPP-1 enzyme.
Gly-Phe-AFC*TFA (Enzyme Systems Products AFC-033) was used as the substrate for determination of IC50 values. Km was 270 μM. The substrate was solubilized in DMSO to give a 7.5 mM stock solution (2.2 mg of substrate was added to 0.5 mL DMSO).
Human DPP-I (hDDP-I; obtained from UniZyme A/S, DK-2970Hørsholm, Denmark) was stored at −20° C. in a buffer containing 2.5 mM Na-phosphate, 150 mM NaCl, 2 mM cysteamine, 50% glycerol, pH 7.0 at a concentration of 2.5 mg/mL. This stock solution was diluted 200 times in the assay buffer.
The assay was performed in 96-well plates. […] The excitation wavelength was 400 nm, and the emission was measured at 505 nm for 10 minutes at 37° C. […] In the software (SOFTmax Pro) used for data collection from the fluorometer (Molecular Devices: Gemini XS), it was ensured that the measured slopes were linear (R^2>0.99). […]

T2 sequence (P08684 2-503 limits assumed): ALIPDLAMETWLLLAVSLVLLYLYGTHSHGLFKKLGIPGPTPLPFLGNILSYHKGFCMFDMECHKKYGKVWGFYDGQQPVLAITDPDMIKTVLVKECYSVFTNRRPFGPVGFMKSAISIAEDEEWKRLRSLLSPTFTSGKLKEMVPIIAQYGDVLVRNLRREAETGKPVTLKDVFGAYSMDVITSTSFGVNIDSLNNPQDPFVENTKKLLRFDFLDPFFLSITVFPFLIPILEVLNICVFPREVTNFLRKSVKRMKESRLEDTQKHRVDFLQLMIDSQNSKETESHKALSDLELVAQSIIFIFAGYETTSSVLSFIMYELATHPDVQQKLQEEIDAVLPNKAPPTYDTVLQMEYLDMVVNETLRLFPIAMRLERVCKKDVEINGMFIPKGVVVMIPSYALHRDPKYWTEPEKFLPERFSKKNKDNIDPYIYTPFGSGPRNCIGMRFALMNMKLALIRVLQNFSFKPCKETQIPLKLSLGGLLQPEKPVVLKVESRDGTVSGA
T3 sequence (P53634 231-394 limits assumed): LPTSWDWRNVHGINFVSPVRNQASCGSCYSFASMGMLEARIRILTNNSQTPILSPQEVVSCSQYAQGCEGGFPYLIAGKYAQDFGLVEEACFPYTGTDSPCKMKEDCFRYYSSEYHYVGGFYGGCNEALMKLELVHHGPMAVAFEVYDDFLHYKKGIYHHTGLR
T3 sequence (P53634 395-463 limits assumed): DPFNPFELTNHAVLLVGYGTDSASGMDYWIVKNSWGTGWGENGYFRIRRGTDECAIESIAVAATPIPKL
T3 sequence (P53634 25-143 limits assumed): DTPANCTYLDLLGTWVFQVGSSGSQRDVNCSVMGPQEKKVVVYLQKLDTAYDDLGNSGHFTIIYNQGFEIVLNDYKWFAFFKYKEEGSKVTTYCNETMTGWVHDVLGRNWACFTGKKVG
T1 sequence (P10635 whole entry): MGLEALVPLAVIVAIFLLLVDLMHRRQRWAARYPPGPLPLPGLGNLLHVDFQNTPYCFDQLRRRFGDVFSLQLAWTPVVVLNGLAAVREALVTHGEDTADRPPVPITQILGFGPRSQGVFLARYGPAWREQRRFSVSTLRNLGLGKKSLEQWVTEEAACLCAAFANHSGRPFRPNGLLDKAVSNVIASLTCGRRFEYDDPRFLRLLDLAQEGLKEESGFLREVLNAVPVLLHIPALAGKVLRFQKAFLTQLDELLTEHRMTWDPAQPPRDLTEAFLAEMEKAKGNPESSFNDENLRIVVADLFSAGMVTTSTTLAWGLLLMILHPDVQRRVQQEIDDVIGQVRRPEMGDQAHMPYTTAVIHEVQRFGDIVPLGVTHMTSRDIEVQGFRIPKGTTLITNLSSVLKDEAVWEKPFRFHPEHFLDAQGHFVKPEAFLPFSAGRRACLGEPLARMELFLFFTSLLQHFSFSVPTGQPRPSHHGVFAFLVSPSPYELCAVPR

CC[C@H](N)C(=O)N[C@H](C#N)Cc1ccc(-c2ccccc2)cc1 [Example 5, (2S)—N-[(2S)-2-aminobutanoyl]-2-amino-3-(1,1′-biphenyl-4-yl)propionitrile]
IC50 [1]: 12.6 ± 0.677 µM | IC50 [2]: 3.6 ± 3.41 µM | IC50 [3]: 0.013 ± 0.003 µM
